Measurements from US20260000692A1, “Substituted N-(Pyridin-2-yl)Acetamide Derivatives as CDK12/13 Inhibitors” (Aurigene Oncology Limited, priority 2022, published 2026).

Target: CDK12 (Homo sapiens, UniProt Q9NYV4)
Assay: Biochemical assay for CDK12 (LANCE TR-FRET, IC50 determination)
Conditions: for IC50: CDK12, IC50 class, read-out: IC50 μM (in range); for inhibition at 10 µM / CDK12 % Inhibition @ 10 μM: compound at 10 μM; for inhibition at 10 µM: read-out: CDK12 % Inhibition @ 10 μM
Procedure: Biochemical Assay for CDK12 (IC50 Determination):
The inhibitory activity of the test compounds was assessed by the LANCE TR-FRET assay, which detects the ATP-dependent phosphorylation of an ULight-4E-BP1 (Thr37/Thr46) substrate peptide (100 nM) by CDK12 (30 nM). Briefly, the enzyme reaction was run in reaction buffer (25 mM HEPES (pH 7.5), 10 mM MgCl2, […], 0.01% Triton x, 1 mM DTT). The assay was performed in 384-well plate format. The end concentration of the ATP substrate was […], and that of the ULight-4E-BP1 (Thr37/Thr46) substrate peptide was 100 nM, and of CDK12 was 30 nM. Pre-incubation of the compound and enzyme was performed for 60 min at room temperature. After 60 min incubation at room temperature, the reaction was terminated by the addition of 40 mM EDTA and 0.5 nM Eu-labeled anti-phospho-eIF4E-binding protein (Thr37/46) antibody in LANCE detection buffer. Time-resolved fluorescence (excitation, 320 nm; emission donor, 615 nm; emission acceptor, 665 nm) was monitored by using 2030 multilabel reader Victor5 (PerkinElmer). The Fluorescence emission of the samples were measured and the ratio was plotted against the compound concentration to generate the dose response curve. The IC50 values were derived by fitting a sigmoidal dose-response curve to a plot of assay readout over inhibitor concentration. All fits were computed with the program Prism 5.03 (Graph Pad Software, San Diego, CA). The % inhibition values at […] were calculated with respect to enzyme activity.

Sequence of CDK12 (Q9NYV4 whole entry): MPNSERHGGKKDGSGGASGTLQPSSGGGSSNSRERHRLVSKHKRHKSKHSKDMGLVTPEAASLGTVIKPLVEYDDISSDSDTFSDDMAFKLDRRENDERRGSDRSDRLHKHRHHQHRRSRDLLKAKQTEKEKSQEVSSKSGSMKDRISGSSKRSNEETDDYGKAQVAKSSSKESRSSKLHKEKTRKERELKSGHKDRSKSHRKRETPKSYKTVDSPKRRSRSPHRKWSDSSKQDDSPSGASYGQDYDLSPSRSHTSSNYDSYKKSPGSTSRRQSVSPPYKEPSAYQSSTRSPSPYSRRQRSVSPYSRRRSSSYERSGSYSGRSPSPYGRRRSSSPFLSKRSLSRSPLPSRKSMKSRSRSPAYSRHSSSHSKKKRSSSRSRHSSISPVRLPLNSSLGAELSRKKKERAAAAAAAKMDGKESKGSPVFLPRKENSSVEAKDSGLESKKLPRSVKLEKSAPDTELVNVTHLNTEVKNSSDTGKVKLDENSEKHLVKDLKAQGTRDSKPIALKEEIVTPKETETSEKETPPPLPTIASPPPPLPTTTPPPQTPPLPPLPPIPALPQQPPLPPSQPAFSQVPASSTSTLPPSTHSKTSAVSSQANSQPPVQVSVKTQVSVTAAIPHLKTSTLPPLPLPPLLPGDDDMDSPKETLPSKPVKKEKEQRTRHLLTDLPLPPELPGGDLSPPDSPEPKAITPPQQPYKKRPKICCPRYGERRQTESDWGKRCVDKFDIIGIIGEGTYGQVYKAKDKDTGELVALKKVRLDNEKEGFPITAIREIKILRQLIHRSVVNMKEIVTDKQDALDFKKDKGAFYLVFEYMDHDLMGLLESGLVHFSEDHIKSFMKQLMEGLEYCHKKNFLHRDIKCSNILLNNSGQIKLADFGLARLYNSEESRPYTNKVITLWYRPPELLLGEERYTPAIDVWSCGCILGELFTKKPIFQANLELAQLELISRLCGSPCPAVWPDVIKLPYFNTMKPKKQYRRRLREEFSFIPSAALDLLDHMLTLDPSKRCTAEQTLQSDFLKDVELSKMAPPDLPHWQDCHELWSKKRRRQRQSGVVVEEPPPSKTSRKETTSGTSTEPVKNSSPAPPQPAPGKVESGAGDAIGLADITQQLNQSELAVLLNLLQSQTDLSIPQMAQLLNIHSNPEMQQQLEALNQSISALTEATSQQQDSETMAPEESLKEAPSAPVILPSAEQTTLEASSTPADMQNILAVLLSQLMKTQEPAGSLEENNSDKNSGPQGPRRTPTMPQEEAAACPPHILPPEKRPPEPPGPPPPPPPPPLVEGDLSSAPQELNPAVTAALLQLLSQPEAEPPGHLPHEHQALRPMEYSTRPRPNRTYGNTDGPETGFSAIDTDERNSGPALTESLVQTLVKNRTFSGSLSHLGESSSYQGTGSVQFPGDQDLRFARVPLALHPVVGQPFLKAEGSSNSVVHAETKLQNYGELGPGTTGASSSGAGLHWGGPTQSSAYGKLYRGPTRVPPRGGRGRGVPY
Sequence of CDK12 (O75909 whole entry partner): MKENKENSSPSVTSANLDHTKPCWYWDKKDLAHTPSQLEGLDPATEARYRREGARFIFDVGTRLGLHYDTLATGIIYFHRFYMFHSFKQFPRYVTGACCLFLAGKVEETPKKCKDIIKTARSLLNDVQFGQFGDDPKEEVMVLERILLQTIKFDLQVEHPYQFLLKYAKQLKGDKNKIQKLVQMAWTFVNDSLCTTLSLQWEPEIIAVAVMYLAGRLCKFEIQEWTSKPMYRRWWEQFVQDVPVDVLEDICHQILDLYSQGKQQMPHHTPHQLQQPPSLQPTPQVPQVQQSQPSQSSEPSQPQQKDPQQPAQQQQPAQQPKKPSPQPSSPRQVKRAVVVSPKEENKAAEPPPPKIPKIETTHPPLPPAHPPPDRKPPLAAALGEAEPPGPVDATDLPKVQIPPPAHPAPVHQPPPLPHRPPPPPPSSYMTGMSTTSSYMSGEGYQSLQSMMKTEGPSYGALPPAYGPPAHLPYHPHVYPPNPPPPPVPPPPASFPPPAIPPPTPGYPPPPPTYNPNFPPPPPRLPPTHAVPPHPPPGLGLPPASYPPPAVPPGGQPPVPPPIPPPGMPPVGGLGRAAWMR

Compound | IC50 | inhibition at 10 µM | CDK12 % Inhibition @ 10 μM (10 µM) | CDK12 % Inhibition @ 10 μM
CNC(=O)C(C)Oc1cc(NC(=O)Cc2ccc(-c3cccc(C#N)n3)nc2)ncc1Cl (racemic) [Compound 155, 2-((5-chloro-2-(2-(6′-cyano-[2,2′-bipyridin]-5-yl)acetamido)pyridin-4-yl)oxy)-N-methylpropanamide] | 0.01 to 0.1 µM | 97% | – | –
CNC(=O)C(C)Oc1cc(NC(=O)Cc2ccc(C3=CCN(C#N)CC3)nc2)ncc1Cl (single isomer, unassigned) [Compound 2, 2-((5-chloro-2-(2-(1′-cyano-1′,2′,3′,6′-tetrahydro-[2,4′-bipyridin]-5-yl)acetamido)pyridin-4-yl)oxy)-N-methylpropanamide] | < 0.01 µM | 90% | – | –
CNC(=O)C(C)Oc1cc(NC(=O)Cc2ccc(C3=CCN(C#N)CC3)nc2)ncc1Cl (single isomer, unassigned) [Compound 3, 2-((5-chloro-2-(2-(1′-cyano-1′,2′,3′,6′-tetrahydro-[2,4′-bipyridin]-5-yl)acetamido)pyridin-4-yl)oxy)-N-methylpropanamide] | < 0.01 µM | 84% | – | –
COc1cc(NC(=O)Cc2ccc(C3=CCN(C#N)C(C)C3)nc2)ncc1Cl (single isomer, unassigned) [Compound 66, N-(5-chloro-4-methoxypyridin-2-yl)-2-(1′-cyano-2′-methyl-1′,2′,3′,6′-tetrahydro-[2,4′-bipyridin]-5-yl)acetamide] | 0.01 to 0.1 µM | 88% | – | –
COc1cc(NC(=O)Cc2ccc(C3=CCN(C#N)C(C)C3)nc2)ncc1Cl (single isomer, unassigned) [Compound 67, N-(5-chloro-4-methoxypyridin-2-yl)-2-(1′-cyano-2′-methyl-1′,2′,3′,6′-tetrahydro-[2,4′-bipyridin]-5-yl)acetamide] | 0.01 to 0.1 µM | – | 86% | –
COc1cc(NC(=O)Cc2ccc(C3CCCN(C#N)C3)nc2)ncc1Cl (single isomer, unassigned) [Compound 79, N-(5-chloro-4-methoxypyridin-2-yl)-2-(6-(1-cyanopiperidin-3-yl)pyridin-3-yl)acetamide] | > 0.1 µM | 79% | – | –
COc1cc(NC(=O)Cc2ccc(C3CCCN(C#N)C3)nc2)ncc1Cl (single isomer, unassigned) [Compound 80, N-(5-chloro-4-methoxypyridin-2-yl)-2-(6-(1-cyanopiperidin-3-yl)pyridin-3-yl)acetamide] | 0.01 to 0.1 µM | – | 87% | –
CNC(=O)C(C)Oc1cc(NC(=O)Cc2ccc(C3CCN(C#N)CC3)nc2)ncc1Cl (single isomer, unassigned) [Compound 83, 2-((5-chloro-2-(2-(6-(1-cyanopiperidin-4-yl)pyridin-3-yl)acetamido)pyridin-4-yl)oxy)-N-methylpropanamide] | 0.01 to 0.1 µM | 84% | – | –
CNC(=O)C(C)Oc1cc(NC(=O)Cc2ccc(C3CCN(C#N)CC3)nc2)ncc1Cl (single isomer, unassigned) [Compound 84, 2-((5-chloro-2-(2-(6-(1-cyanopiperidin-4-yl)pyridin-3-yl)acetamido)pyridin-4-yl)oxy)-N-methylpropanamide] | < 0.01 µM | – | – | 84%
CNC(=O)C(C)Oc1cc(NC(=O)Cc2ccc(C3CCCN(C#N)C3)nc2)ncc1Cl (single isomer, unassigned) [Compound 86, 2-((5-chloro-2-(2-(6-(1-cyanopiperidin-3-yl)pyridin-3-yl)acetamido)pyridin-4-yl)oxy)-N-methylpropanamide] | > 0.1 µM | 84% | – | –
CNC(=O)C(C)Oc1cc(NC(=O)Cc2ccc(C3CCCN(C#N)C3)nc2)ncc1Cl (single isomer, unassigned) [Compound 87, 2-((5-chloro-2-(2-(6-(1-cyanopiperidin-3-yl)pyridin-3-yl)acetamido)pyridin-4-yl)oxy)-N-methylpropanamide] | > 0.1 µM | – | 85% | –
CNC(=O)C(C)Oc1cc(NC(=O)Cc2ccc(C3CCCN(C#N)C3)nc2)ncc1Cl (single isomer, unassigned) [Compound 88, 2-((5-chloro-2-(2-(6-(1-cyanopiperidin-3-yl)pyridin-3-yl)acetamido)pyridin-4-yl)oxy)-N-methylpropanamide] | > 0.1 µM | – | 79% | –
CNC(=O)C(C)Oc1cc(NC(=O)Cc2ccc(C3CCCN(C#N)C3)nc2)ncc1Cl (single isomer, unassigned) [Compound 89, 2-((5-chloro-2-(2-(6-(1-cyanopiperidin-3-yl)pyridin-3-yl)acetamido)pyridin-4-yl)oxy)-N-methylpropanamide] | 0.01 to 0.1 µM | – | 90% | –
CNC(=O)C(C)Oc1cc(NC(=O)Cc2ccc(C3CCCN(C#N)C3)nc2)ncc1Cl (single isomer, unassigned) [Compound 90, 2-((5-chloro-2-(2-(6-(1-cyanopiperidin-3-yl)pyridin-3-yl)acetamido)pyridin-4-yl)oxy)-N-methylpropanamide] | 0.01 to 0.1 µM | – | 93% | –
CNC(=O)C(C)Oc1cc(NC(=O)Cc2ccc(C3CCCN(C#N)C3)nc2)ncc1Cl (single isomer, unassigned) [Compound 91, 2-((5-chloro-2-(2-(6-(1-cyanopiperidin-3-yl)pyridin-3-yl)acetamido)pyridin-4-yl)oxy)-N-methylpropanamide] | 0.01 to 0.1 µM | – | 95% | –
N#CN1CCCC(c2ccc(CC(=O)Nc3cc(O[C@@H]4CCOC4)c(Cl)cn3)cn2)C1 (single isomer, unassigned) [Compound 93] | 0.01 to 0.1 µM | 73% | – | –

Now from value to compound:

IC50 | inhibition at 10 µM | CDK12 % Inhibition @ 10 μM (10 µM) | CDK12 % Inhibition @ 10 μM | Compound
< 0.01 µM | 89% | – | – | N#CN1CCC=C(c2ccc(CC(=O)Nc3cc(OC4CCCOC4)c(Cl)cn3)cn2)C1 (single isomer, unassigned) [Compound 44, N-(5-chloro-4-((tetrahydro-2H-pyran-3-yl)oxy)pyridin-2-yl)-2-(1′-cyano-1′,2′,5′,6′-tetrahydro-[2,3′-bipyridin]-5-yl)acetamide]
< 0.01 µM | – | 92% | – | N#CN1CCC=C(c2ccc(CC(=O)Nc3cc(OC4CCCOC4)c(Cl)cn3)cn2)C1 (single isomer, unassigned) [Compound 45, N-(5-chloro-4-((tetrahydro-2H-pyran-3-yl)oxy)pyridin-2-yl)-2-(1′-cyano-1′,2′,5′,6′-tetrahydro-[2,3′-bipyridin]-5-yl)acetamide]
< 0.01 µM | 89% | – | – | COc1cc(NC(=O)C(C)c2ccc(C3=CCCN(C#N)C3)nc2)ncc1Cl (single isomer, unassigned) [Compound 49]
< 0.01 µM | 102% | – | – | COc1cc(NC(=O)C(C)c2ccc(C3=CCN(C#N)CC3)nc2)ncc1Cl (single isomer, unassigned) [Compound 52]
< 0.01 µM | 78% | – | – | CNC(=O)C(C)Oc1cc(NC(=O)Cc2ccc(C3=CCCN(C#N)C3)nc2)ncc1Cl (single isomer, unassigned) [Compound 57, 2-((5-chloro-2-(2-(1′-cyano-1′,2′,5′,6′-tetrahydro-[2,3′-bipyridin]-5-yl)acetamido)pyridin-4-yl)oxy)-N-methylpropanamide]
< 0.01 µM | – | 98% | – | CNC(=O)C(C)Oc1cc(NC(=O)Cc2ccc(C3=CCCN(C#N)C3)nc2)ncc1Cl (single isomer, unassigned) [Compound 58, 2-((5-chloro-2-(2-(1′-cyano-1′,2′,5′,6′-tetrahydro-[2,3′-bipyridin]-5-yl)acetamido)pyridin-4-yl)oxy)-N-methylpropanamide]
< 0.01 µM | 92% | – | – | CC1CC(Oc2cc(NC(=O)Cc3ccc(C4=CCCN(C#N)C4)nc3)ncc2Cl)CCN1C (single isomer, unassigned) [Compound 64, N-(5-chloro-4-((1,2-dimethylpiperidin-4-yl)oxy)pyridin-2-yl)-2-(1′-cyano-1′,2′,5′,6′-tetrahydro-[2,3′-bipyridin]-5-yl)acetamide]
< 0.01 µM | – | 87% | – | COc1cc(NC(=O)Cc2ccc(C3=CCN(C#N)C(C)C3)nc2)ncc1Cl (single isomer, unassigned) [Compound 68, N-(5-chloro-4-methoxypyridin-2-yl)-2-(1′-cyano-2′-methyl-1′,2′,3′,6′-tetrahydro-[2,4′-bipyridin]-5-yl)acetamide]
< 0.01 µM | 93% | – | – | COc1cc(NC(=O)Cc2ccc(C3=CCN(C#N)CC3C)nc2)ncc1Cl (single isomer, unassigned) [Compound 71, N-(5-chloro-4-methoxypyridin-2-yl)-2-(1′-cyano-3′-methyl-1′,2′,3′,6′-tetrahydro-[2,4′-bipyridin]-5-yl)acetamide]
< 0.01 µM | – | 92% | – | COc1cc(NC(=O)Cc2ccc(C3=CCN(C#N)CC3C)nc2)ncc1Cl (single isomer, unassigned) [Compound 72, N-(5-chloro-4-methoxypyridin-2-yl)-2-(1′-cyano-3′-methyl-1′,2′,3′,6′-tetrahydro-[2,4′-bipyridin]-5-yl)acetamide]
